Data taken from patent publication US20180110799A1, “Compositions and Methods for the Inhibition of Chondrogenesis” (The Children's Hospital of Philadelphia, priority 2014, published 2018).
Each block holds one compound with its values, some of them ahead of it.

Tests used:
endogenous heparanase [1] = test: Immunoblot of endogenous heparanase protein in micromass cultures; format: cell-based, mouse
Method: ATDC5 cells were grown to 100% confluence in 6-well plates and treated with indicated concentrations of Surfen, bis-2-methyl-4-amino-quinolyl-6-carbamide. […] The membranes were re-blotted with antibodies to α-tubulin (Sigma T-5168, 1:2000) for normalization, and band intensities were quantified by computer-assisted image analysis.

endogenous heparanase [2] = test: Immunoblot of endogenous heparanase protein in ATDC5 cultures; format: cell-based, mouse; conditions: compared with the micromass response
Method: ATDC5 cells, derived from mouse embryonal carcinoma, were cultured in 10 cm dishes with a 1:1 mixture of Dulbecco's modified Eagle's medium and Ham's F-12 (Life Technologies) supplemented with 5% fetal bovine serum (ATCC), 10 μg/ml human transferrin (Mediatech), […] sodium selenite (Mediatech), and 20 μg/ml insulin at 37° C. under 5% CO2. Experiments were conducted once cells reached confluence.
ATDC5 cells were grown to 100% confluence in 6-well plates and treated with indicated concentrations of Surfen, bis-2-methyl-4-amino-quinolyl-6-carbamide. Micromass cultures were treated with control vehicle, Surfen, human heparanase, roneparstat, or rhBMP2. At specified time points, total cellular proteins were harvested in SDS-PAGE sample buffer, electrophoresed on 4-15% SDS-Bis-Tris gels (40 μg per lane) and transferred to PVDF membranes (Invitrogen). Membranes were incubated overnight at 4° C. with dilutions of antibodies against phospho-Smad1/5/8 (Cell Signaling Technology 9511, 1:1000), Smad1 (Abcam 63439, 1:500) or human heparanase (Abcam 59787, 1:750). Enhanced chemiluminescent immunoblotting detection system (Pierce) was used to detect the antigen antibody complexes. The membranes were re-blotted with antibodies to α-tubulin (Sigma T-5168, 1:2000) for normalization, and band intensities were quantified by computer-assisted image analysis.

heparanase mRNA = test: Semi-quantitative RT-PCR of heparanase mRNA in micromass cultures; format: cell-based, mouse
Method: (§1) Micromass cultures were prepared from the mesenchymal cells of E11.5 mouse embryo limb buds (Ahrens et al. (1979) Dev. Biol., 69:436-50). Dissociated cells were suspended at a concentration of 5×10^6 cells/ml in DMEM containing 3% fetal bovine serum and antibiotics. Micromass cultures were initiated by spotting 20 μl of the cell suspensions (1.5×10^5 cells) onto the surface of 24-well tissue culture dishes. After a 90-minute incubation at 37° C. in a humidified CO2 incubator to allow for cell attachment, the cultures were supplied with 0.25 ml of medium. After 24 hours, medium supplemented with the indicated concentrations of Surfen (bis-2-methyl-4-aminoquinolyl-6-carbamide), bacterial heparitinase III (Sigma), recombinant human BMP2 (R&D Systems), recombinant human heparanase, or roneparstat (Sigma-Tau Research S.A.). Fresh reagents (drug and/or protein) were given with medium change every other day. Equivalent amounts of vehicle were added to control cultures. Cultures were stained with Alcian blue (pH 1.0) after four and six days to monitor chondrogenic cell differentiation by standard methods. […]
(§2) Total RNA was extracted from cells by the guanidine phenol method using TRIzol® reagent (Invitrogen) according to the manufacturer's protocols and measured using a NanoDrop. […] Band intensities were quantified by computer-assisted image analysis (ImageQuant™ TL, GE Healthcare).

[3] = test system: ADTC5 chondrogenic cell line; conditions: Brown et al. 2008; cited from earlier work
[4] = mouse models of diabetic nephropathy; cited from earlier work
[5] = test system: mesenchymal cells of E11.5 mouse embryo limb buds; test: Micromass diameter (proliferation/migration of peripheral cells); format: cell-based; conditions: day 4 and day 6
Method: as §1, with “S.A.).” for “S.A.). Fresh reagents (drug and/or protein) were given with medium change every other day. Equivalent amounts of vehicle were added to control cultures. Cultures were stained with Alcian blue (pH 1.0) after four and six days to monitor chondrogenic cell differentiation by standard methods.”
(§3) ATDC5 cells were treated at day 0 with human heparanase (400 ng/ml) or a vehicle control. […] DNA isolation was performed using TRIzol® reagent (Invitrogen) according to the manufacturer's protocols and measured using a NanoDrop (ThermoScientific). ATDC5 migration was analyzed via a scratch test. […] The open scratch area was quantified with ImageJ (n=6/treatment group). In micromass cultures, migration was determined by expansion of the micromass itself from day 0 to day 4 or 6. The diameters of untreated micromasses (n=10) were measured and averaged for a baseline size. […]

heparanase = target: T1, heparanase (Homo sapiens, UniProt Q9Y251); conditions: Ritchie et al. 2011; cited from earlier work
T1 sequence (Q9Y251 158-543 limits assumed): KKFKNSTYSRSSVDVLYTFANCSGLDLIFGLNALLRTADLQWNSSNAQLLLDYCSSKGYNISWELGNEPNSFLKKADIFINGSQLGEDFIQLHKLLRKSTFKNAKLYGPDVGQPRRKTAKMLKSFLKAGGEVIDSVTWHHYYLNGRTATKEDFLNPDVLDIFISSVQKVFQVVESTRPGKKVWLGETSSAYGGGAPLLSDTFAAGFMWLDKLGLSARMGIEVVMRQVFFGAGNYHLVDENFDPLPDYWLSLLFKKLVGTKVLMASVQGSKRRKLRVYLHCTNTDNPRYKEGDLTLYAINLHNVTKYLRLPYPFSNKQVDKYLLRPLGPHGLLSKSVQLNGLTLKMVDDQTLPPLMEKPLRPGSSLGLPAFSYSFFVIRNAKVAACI
T1 sequence (Q9Y251 36-109 limits assumed): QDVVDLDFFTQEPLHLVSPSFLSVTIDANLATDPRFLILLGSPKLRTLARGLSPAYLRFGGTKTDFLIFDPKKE

[6] = test system: myeloma and sarcoma cells; conditions: mouse models; Ritchie 2011, Cassinelli 2013; cited from earlier work
[7] = test system: collagen II (ColII), aggrecan (Agg) and Runx2; test: Semi-quantitative RT-PCR of chondrogenic marker genes in micromass cultures; format: cell-based, mouse; conditions: micromass day 4 and 6
Method: (§4) Micromass cultures were prepared from the mesenchymal cells of E11.5 mouse embryo limb buds (Ahrens et al. (1979) Dev. Biol., 69:436-50). Dissociated cells were suspended at a concentration of 5×10^6 cells/ml in DMEM containing 3% fetal bovine serum and antibiotics. Micromass cultures were initiated by spotting 20 μl of the cell suspensions […] onto the surface of 24-well tissue culture dishes. After a 90-minute incubation at 37° C. in a humidified CO2 incubator to allow for cell attachment, the cultures were supplied with 0.25 ml of medium. After 24 hours, medium supplemented with the indicated concentrations of Surfen (bis-2-methyl-4-aminoquinolyl-6-carbamide), bacterial heparitinase III (Sigma), recombinant human BMP2 (R&D Systems), recombinant human heparanase, or roneparstat (Sigma-Tau Research S.A.). Fresh reagents (drug and/or protein) were given with medium change every other day. Equivalent amounts of vehicle were added to control cultures. Cultures were stained with Alcian blue (pH 1.0) after four and six days to monitor chondrogenic cell differentiation by standard methods. Micromass analysis was performed using ImageJ. Images were made binary under an RGB threshold, and “Particle Analysis” was utilized to measure nodule size, number, and Alcian blue positive area.
Total RNA was extracted from cells by the guanidine phenol method using TRIzol® reagent (Invitrogen) according to the manufacturer's protocols and measured using a NanoDrop. One μg of total RNA was reverse transcribed using the SuperScript® III First-Strand Synthesis System (Life Technologies). Band intensities for semiquantitative PCR were normalized to GAPDH and compared while band intensities and cycle numbers were linear. […] Band intensities were quantified by computer-assisted image analysis (ImageQuant™ TL, GE Healthcare).

[8] = literature; cited from earlier work
[9] = test system: mesenchymal cells of E11.5 mouse embryo limb buds; test: Limb bud micromass chondrogenesis, alcian blue staining; format: cell-based; conditions: three concentrations up to 20 μg/ml; dose-dependent; day 4 and 6
Method: as §4

[10] = test system: mesenchymal cells of E11.5 mouse embryo limb buds; test: Cell number, density and whole cellular RNA/DNA content of micromass cultures; format: cell-based
Method: as §1, with “methods. Micromass analysis was performed using ImageJ.” for “methods.”
as §3, §2

increase of endogenous heparanase protein levels (endogenous heparanase [1]; 7.5 μM, limb micromass cultures, immunoblot densitometry): about 8 fold
heparanase mRNA amounts (heparanase mRNA): increased
Compound: Cc1cc(N)c2cc(NC(=O)Nc3ccc4nc(C)cc(N)c4c3)ccc2n1 [Surfen, bis-2-methyl-4-aminoquinolyl-6-carbamide]
endogenous heparanase protein levels in ADTC5 cell cultures (endogenous heparanase [2]): very similar response

Compound: PI-88
alcian blue staining and cartilage gene expression [3]: only modest reductions

levels of endogenous heparanase vs untreated control cultures (endogenous heparanase [1]; micromass cultures, immunoblot): reduced
whole cellular RNA and DNA content, treated vs untreated ([10]; day 4 and day 6): remained similar
whole cellular RNA and DNA content ([10]; maximal 20 μg/ml dose): minor decreases
Compound: roneparstat
extent of albuminuria and renal damage [4]: markedly decreases
overall diameter of micromass cultures vs control [5]: reduced the overall diameter
inhibitory activity on heparanase (heparanase): very strong inhibitory activity
growth of myeloma and sarcoma cells and concomitant angiogenesis [6]: interfere with the growth
expression of Runx2 [7]: dose-dependently inhibited
expression of aggrecan (Agg) [7]: dose-dependently inhibited
expression of collagen II (ColII) [7]: dose-dependently inhibited
anticoagulant properties [8]: without anticoagulant properties
formation of alcian blue-positive chondrogenic nodules [9]: strongly reduced
overall cell number and density (hematoxylin counterstaining) ([10]; after treatment of micromass cultures): had not changed significantly
